Test results published in patent publication US9937151B2, “Carbapenem antibacterials with gram-negative activity” (priority 2010, dated 2018).
Converted amounts (≈) assume the structure as drawn.

System: G(−) bacterial strains
Assay: Dilution antimicrobial susceptibility tests (MIC, NCCLS agar dilution / broth dilution)
Assay type: cell-based, Gram-negative organisms
Details: unit assumed
Experimental: The MIC (minimum inhibitory concentration) was determined by the NCCLS (National Committee for Clinical Laboratory Standards) methods 2000. Methods for dilution antimicrobial susceptibility testing for bacteria that growth aerobically (M7-A5, vol. 20, No. 2). The agar dilution method for determining antimicrobial susceptibility was carried out using Mueller-Hinton agar. A final inoculum of 10^4 CFU/spot was applied with an inoculation device. Broth dilution tests were performed with 5×10^5 CFU/well in 96 well plates. The susceptibilities of streptococci were determined by Mueller-Hinton agar supplemented with 5% sheep blood. All assays were run with the indicated control strains, available from the ATCC (American Type Culture Collection, Rockville, Md.).
Abbreviations used in Table 1 are defined as follows: Cf-R: Ceftazidime Resistance, Ci-R: Ciprofloxacin Resistance, Gen-R: Gentamycin Resistance, Imp-R: Imipenem Resistance, Mp-R: Meropenem Resistance, Ofx-R: Ofloxacin Resistance, B+: β-lactamase Production, AmpC: AmpC-lactamase Hyper production, CBPase: Carbapenemase Production.

[1] = strain #1 Acinetobacter calcoaceticus
[2] = strain #2 Acinetobacter baumannii, Cf-R, Ci-R
[3] = strain #3 Acinetobacter baumannii, Cf-R, Ci-R, Mp-I
[4] = strain #4 Acinetobacter baumannii, Cf-R, Imp-I, CBPase
[5] = strain #7 Enterobacter aerogenes
[6] = strain #8 Enterobacter cloacae, Cf-R, B+
[7] = strain #9 Enterobacter cloacae, Cf-R
[8] = strain #10 Escherichia coli, Ci-R
[9] = strain #11 Escherichia coli, Ci-R, AmpC
[10] = strain #15 Klebsiella pneumoniae
[11] = strain #16 Moraxella catarrhalis
[12] = strain #21 Providencia rettgeri
[13] = strain #22 Salmonella typhimurium
[14] = strain #25 Shigella dysenteriae
[15] = strain #28 Stenotrophomonas maltophilia
[16] = strain #29 Pseudomonas aeruginosa
[17] = strain #30 Pseudomonas aeruginosa
[18] = strain #31 Pseudomonas aeruginosa, Ofx-R
[19] = strain #32 Pseudomonas aeruginosa, Cf-R
[20] = strain #33 Pseudomonas aeruginosa, Ci-R
[21] = strain #34 Pseudomonas aeruginosa, Gen-R
[22] = strain #35 Pseudomonas aeruginosa, Ip-R
[23] = strain #36 Pseudomonas aeruginosa, Cf-R, Ci-R, Mp-R

Row | SMILES | MIC [1] | MIC [2] | MIC [3] | MIC [4] | MIC (strain #5 Citrobacter diversus) | MIC (strain #6 Citrobacter freundii) | MIC [5] | MIC [6] | MIC [7] | MIC [8] | MIC [9] | MIC (strain #12 Escherichia coli) | MIC (strain #13 Escherichia coli) | MIC (strain #14 Klebsiella oxytoca) | MIC [10] | MIC [11] | MIC (strain #17 Morganella Morganii) | MIC (strain #18 Morganella Morganii) | MIC (strain #19 Proteus vulgaris) | MIC (strain #20 Proteus mirabilis) | other results
1 | C[C@@H](O)C1C(=O)N2C(C(=O)O)=C(CN3CC[C@H](CNC(=N)N)C3)[C@H](C)C12 (stereo partly drawn) [Compound 99] | 0.25 µg/mL (≈ 0.684 µM) | 1 µg/mL (≈ 2.74 µM) | 2 µg/mL (≈ 5.47 µM) | 2 µg/mL (≈ 5.47 µM) | 0.5 µg/mL (≈ 1.37 µM) | 1 µg/mL (≈ 2.74 µM) | 2 µg/mL (≈ 5.47 µM) | 0.5 µg/mL (≈ 1.37 µM) | 1 µg/mL (≈ 2.74 µM) | 0.5 µg/mL (≈ 1.37 µM) | 0.5 µg/mL (≈ 1.37 µM) | 0.5 µg/mL (≈ 1.37 µM) | 1 µg/mL (≈ 2.74 µM) | 2 µg/mL (≈ 5.47 µM) | 1 µg/mL (≈ 2.74 µM) | ≤ 0.008 µg/mL | 4 µg/mL (≈ 10.9 µM) | 4 µg/mL (≈ 10.9 µM) | 2 µg/mL (≈ 5.47 µM) | 1 µg/mL (≈ 2.74 µM) | MIC [12]: 4 µg/mL (≈ 10.9 µM); MIC [13]: 1 µg/mL (≈ 2.74 µM); MIC (strain #23 Serratia marcescens): 2 µg/mL (≈ 5.47 µM); MIC (strain #24 Serratia marcescens): 4 µg/mL (≈ 10.9 µM); MIC [14]: 1 µg/mL (≈ 2.74 µM); MIC (strain #26 Shigella sonnei): 1 µg/mL (≈ 2.74 µM); MIC (strain #27 Shigella flexneri): 1 µg/mL (≈ 2.74 µM); MIC [15]: 0.25 µg/mL (≈ 0.684 µM); MIC [16]: 2 µg/mL (≈ 5.47 µM); MIC [17]: 2 µg/mL (≈ 5.47 µM); MIC [18]: 1 µg/mL (≈ 2.74 µM); MIC [19]: 4 µg/mL (≈ 10.9 µM); MIC [20]: 4 µg/mL (≈ 10.9 µM); MIC [21]: 4 µg/mL (≈ 10.9 µM); MIC [22]: 4 µg/mL (≈ 10.9 µM); MIC [23]: > 32 µg/mL
2 | C[C@@H](O)C1C(=O)N2C(C(=O)O)=C(CN3CC[C@H](C(=O)NCC(N)=O)C3)[C@H](C)C12 (stereo partly drawn) [Compound 137] | 1 µg/mL (≈ 2.54 µM) | 2 µg/mL (≈ 5.07 µM) | 8 µg/mL (≈ 20.3 µM) | 2 µg/mL (≈ 5.07 µM) | 0.5 µg/mL (≈ 1.27 µM) | 1 µg/mL (≈ 2.54 µM) | 2 µg/mL (≈ 5.07 µM) | 0.5 µg/mL (≈ 1.27 µM) | 1 µg/mL (≈ 2.54 µM) | 0.5 µg/mL (≈ 1.27 µM) | 0.5 µg/mL (≈ 1.27 µM) | 0.5 µg/mL (≈ 1.27 µM) | 1 µg/mL (≈ 2.54 µM) | 1 µg/mL (≈ 2.54 µM) | 1 µg/mL (≈ 2.54 µM) | ≤ 0.008 µg/mL | 4 µg/mL (≈ 10.1 µM) | 4 µg/mL (≈ 10.1 µM) | 2 µg/mL (≈ 5.07 µM) | 0.5 µg/mL (≈ 1.27 µM) | MIC [12]: 2 µg/mL (≈ 5.07 µM); MIC [13]: 1 µg/mL (≈ 2.54 µM); MIC (strain #23 Serratia marcescens): 2 µg/mL (≈ 5.07 µM); MIC (strain #24 Serratia marcescens): 2 µg/mL (≈ 5.07 µM); MIC [14]: 1 µg/mL (≈ 2.54 µM); MIC (strain #26 Shigella sonnei): 1 µg/mL (≈ 2.54 µM); MIC (strain #27 Shigella flexneri): 0.5 µg/mL (≈ 1.27 µM); MIC [15]: 0.5 µg/mL (≈ 1.27 µM)
3 | CC(O)C1C(=O)N2C(C(=O)O)=C(CN3CCC(C(=N)N)C3)C(C)C12 (stereo not drawn) [Compound 185a] | 0.13 µg/mL (≈ 0.386 µM) | 0.5 µg/mL (≈ 1.49 µM) | 1 µg/mL (≈ 2.97 µM) | 1 µg/mL (≈ 2.97 µM) | 0.13 µg/mL (≈ 0.386 µM) | 0.13 µg/mL (≈ 0.386 µM) | 0.5 µg/mL (≈ 1.49 µM) | 0.063 µg/mL (≈ 0.187 µM) | 0.13 µg/mL (≈ 0.386 µM) | 0.063 µg/mL (≈ 0.187 µM) | 0.063 µg/mL (≈ 0.187 µM) | 0.063 µg/mL (≈ 0.187 µM) | 0.13 µg/mL (≈ 0.386 µM) | 0.25 µg/mL (≈ 0.743 µM) | 0.25 µg/mL (≈ 0.743 µM) | ≤ 0.008 µg/mL | 1 µg/mL (≈ 2.97 µM) | 1 µg/mL (≈ 2.97 µM) | 0.5 µg/mL (≈ 1.49 µM) | 0.13 µg/mL (≈ 0.386 µM) | MIC [12]: 0.5 µg/mL (≈ 1.49 µM); MIC [13]: 0.13 µg/mL (≈ 0.386 µM); MIC (strain #23 Serratia marcescens): 0.25 µg/mL (≈ 0.743 µM); MIC (strain #24 Serratia marcescens): 0.5 µg/mL (≈ 1.49 µM); MIC [14]: 0.13 µg/mL (≈ 0.386 µM); MIC (strain #26 Shigella sonnei): 0.13 µg/mL (≈ 0.386 µM); MIC (strain #27 Shigella flexneri): 0.063 µg/mL (≈ 0.187 µM); MIC [15]: 0.063 µg/mL (≈ 0.187 µM); MIC [16]: 1 µg/mL (≈ 2.97 µM); MIC [17]: 1 µg/mL (≈ 2.97 µM); MIC [18]: 0.5 µg/mL (≈ 1.49 µM); MIC [19]: 1 µg/mL (≈ 2.97 µM); MIC [20]: 1 µg/mL (≈ 2.97 µM); MIC [21]: 1 µg/mL (≈ 2.97 µM); MIC [22]: 2 µg/mL (≈ 5.95 µM); MIC [23]: 8 µg/mL (≈ 23.8 µM)
4 | C[C@@H](O)C1C(=O)N2C(C(=O)O)=C(CN3CC[C@@H](NC(=N)N)C3)[C@H](C)C12 (stereo partly drawn) [Compound 156] | 0.5 µg/mL (≈ 1.42 µM) | 2 µg/mL (≈ 5.69 µM) | 4 µg/mL (≈ 11.4 µM) | 2 µg/mL (≈ 5.69 µM) | 0.5 µg/mL (≈ 1.42 µM) | 0.5 µg/mL (≈ 1.42 µM) | 2 µg/mL (≈ 5.69 µM) | 0.5 µg/mL (≈ 1.42 µM) | 1 µg/mL (≈ 2.85 µM) | 0.5 µg/mL (≈ 1.42 µM) | 0.5 µg/mL (≈ 1.42 µM) | 0.5 µg/mL (≈ 1.42 µM) | 0.5 µg/mL (≈ 1.42 µM) | 1 µg/mL (≈ 2.85 µM) | 1 µg/mL (≈ 2.85 µM) | ≤ 0.008 µg/mL | 4 µg/mL (≈ 11.4 µM) | 4 µg/mL (≈ 11.4 µM) | 2 µg/mL (≈ 5.69 µM) | 0.5 µg/mL (≈ 1.42 µM) | MIC [12]: 2 µg/mL (≈ 5.69 µM); MIC [13]: 1 µg/mL (≈ 2.85 µM); MIC (strain #23 Serratia marcescens): 2 µg/mL (≈ 5.69 µM); MIC (strain #24 Serratia marcescens): 2 µg/mL (≈ 5.69 µM); MIC [14]: 1 µg/mL (≈ 2.85 µM); MIC (strain #26 Shigella sonnei): 0.5 µg/mL (≈ 1.42 µM); MIC (strain #27 Shigella flexneri): 0.5 µg/mL (≈ 1.42 µM); MIC [15]: 0.5 µg/mL (≈ 1.42 µM)
5 | C[C@@H](O)C1C(=O)N2C(C(=O)O)=C(CN3CCC(NC(=O)CNC(=N)N)C3)[C@H](C)C12 (stereo partly drawn) [Compound 167] | 32 µg/mL (≈ 78.3 µM) | > 32 µg/mL | > 32 µg/mL | > 32 µg/mL | 1 µg/mL (≈ 2.45 µM) | 2 µg/mL (≈ 4.9 µM) | 4 µg/mL (≈ 9.79 µM) | 2 µg/mL (≈ 4.9 µM) | 2 µg/mL (≈ 4.9 µM) | 1 µg/mL (≈ 2.45 µM) | 1 µg/mL (≈ 2.45 µM) | 1 µg/mL (≈ 2.45 µM) | 1 µg/mL (≈ 2.45 µM) | 2 µg/mL (≈ 4.9 µM) | 2 µg/mL (≈ 4.9 µM) | 2 µg/mL (≈ 4.9 µM) | 8 µg/mL (≈ 19.6 µM) | 8 µg/mL (≈ 19.6 µM) | 4 µg/mL (≈ 9.79 µM) | 2 µg/mL (≈ 4.9 µM) | MIC [12]: 2 µg/mL (≈ 4.9 µM); MIC [13]: 2 µg/mL (≈ 4.9 µM); MIC (strain #23 Serratia marcescens): 2 µg/mL (≈ 4.9 µM); MIC (strain #24 Serratia marcescens): 4 µg/mL (≈ 9.79 µM); MIC [14]: 1 µg/mL (≈ 2.45 µM); MIC (strain #26 Shigella sonnei): 1 µg/mL (≈ 2.45 µM); MIC (strain #27 Shigella flexneri): 1 µg/mL (≈ 2.45 µM); MIC [15]: 16 µg/mL (≈ 39.2 µM)
6 | CNC(=O)[C@H]1CCN(CC2=C(C(=O)O)N3C(=O)C([C@@H](C)O)C3[C@H]2C)C1 (stereo partly drawn) [Compound 127] | 1 µg/mL (≈ 2.85 µM) | 1 µg/mL (≈ 2.85 µM) | 4 µg/mL (≈ 11.4 µM) | 2 µg/mL (≈ 5.69 µM) | 0.5 µg/mL (≈ 1.42 µM) | 0.5 µg/mL (≈ 1.42 µM) | 2 µg/mL (≈ 5.69 µM) | 0.5 µg/mL (≈ 1.42 µM) | 1 µg/mL (≈ 2.85 µM) | 0.5 µg/mL (≈ 1.42 µM) | 0.5 µg/mL (≈ 1.42 µM) | 0.5 µg/mL (≈ 1.42 µM) | 0.5 µg/mL (≈ 1.42 µM) | 1 µg/mL (≈ 2.85 µM) | 1 µg/mL (≈ 2.85 µM) | ≤ 0.008 µg/mL | 4 µg/mL (≈ 11.4 µM) | 4 µg/mL (≈ 11.4 µM) | 2 µg/mL (≈ 5.69 µM) | 0.5 µg/mL (≈ 1.42 µM) | MIC [12]: 2 µg/mL (≈ 5.69 µM); MIC [13]: 0.5 µg/mL (≈ 1.42 µM); MIC (strain #23 Serratia marcescens): 1 µg/mL (≈ 2.85 µM); MIC (strain #24 Serratia marcescens): 2 µg/mL (≈ 5.69 µM); MIC [14]: 1 µg/mL (≈ 2.85 µM); MIC (strain #26 Shigella sonnei): 0.5 µg/mL (≈ 1.42 µM); MIC (strain #27 Shigella flexneri): 0.5 µg/mL (≈ 1.42 µM); MIC [15]: 0.5 µg/mL (≈ 1.42 µM); MIC [16]: 8 µg/mL (≈ 22.8 µM); MIC [17]: 8 µg/mL (≈ 22.8 µM); MIC [18]: 2 µg/mL (≈ 5.69 µM); MIC [19]: 8 µg/mL (≈ 22.8 µM); MIC [20]: 8 µg/mL (≈ 22.8 µM); MIC [21]: 8 µg/mL (≈ 22.8 µM); MIC [22]: 16 µg/mL (≈ 45.5 µM); MIC [23]: > 32 µg/mL
